# Laboratory results: patent publication US6458585B1, “Cytokine-free culture of dendritic cells” (Nexell Therapeutics Inc., priority 1996, dated 2002)
# Legend:
# Format in all cases: cell-based, human
# adherent PBMNC [1] = assay: S100 immunohistochemistry of plastic adherent cells cultured with non-cytokine additives; details: for percentage of S100+ cells: without GM-CSF added to additives
# Protocol: Immunocytochemical staining: PBS (phosphate buffered saline) was made by dissolving 5 PBS tablets into 1000 ml millipore water. Cytospin slides were soaked in PBS. […] Slides were rinsed with PBS one time. Non-specific binding sites were blocked by incubating with normal serum matching source of secondary antibody (i.e. if secondary antibody is biotinylated goat-anti-mouse, used normal goat serum) at room temp. for 15 min. in a humidified environment. Excess serum was shaken from slides and placed 100 ul of primary antibody on slide, making sure cells are covered with liquid and incubated in humidified environment, room temp, for one hour. Negative control slides were incubated with normal serum for this hour. Slides were rinsed 3 times with PBS. Slides were incubated with biotinylated antibody reactive against the primary antibody (i.e. if primary antibody is mouse-anti-human, use a biotinylated goat-anti-mouse antibody) for 1 hour in humidity. Slides were rinsed 3 times with PBS. Slides were incubated with streptavidin-peroxidase, 2 drops/slide, for 30 min. in humidity. Slides were rinsed 3 times with PBS.
# (§1) Chromagen solution was made with 5 ml millipore water+2 drops of chromagen buffer+1 drop of concentrated chromagen+1 drop of substrate, and 4-5 drops were added to each slide. […] Slides were counterstained with hematoxylin for about 5 min, or until cell nuclei were stained purple. Cells were rinsed with tap water and allowed to air dry. Slides were covered with crystal mount and oven dried at 80 degrees for 15 min. Slides were allowed to cool, then coversliped with mounting medium.
# (§2) Enrichment and Culture of Adherent Cells Using Polystyrene Tissue Culture Plates: PBMNC were resuspended in culture media (X-VIVO 15™+10% autologous serum) at 2×10^6 cells/ml. Cells were placed into 48 well polystyrene tissue culture plates […] and incubated for 2 hours in a 5% CO2, ambient O2, 37° C. humidified incubator. Non-adherent cells were removed from the plates then wells were rinsed with X-VIVO 15™ containing no serum. Cells remaining in the wells were adherent cells. These cells were cultured by adding 2 ml of X-VIVO 15™ to each well plus GM-CSF and IL-4 at final concentrations of 50 ng/ml and 1000 U/ml or the following: cAMP at 0.5 mM, dibutyryl cAMP at 0.1 mM, NaF at 0.25 mM, theophylline at 0.5 mM, PGE at 0.1 mM, Vitamin D3 at 2.5 uM, Vitamin E at 0.1%, Retinoic Acid at 10^−6 M, PMA at 1 pM, Linoleic Acid at 5 ug/ml, or Ca^++ Ionophore at 10 mM. Furthermore, cells were also cultured with the above non-cytokine additives plus GM-CSF at 50 ng/ml. Cells were cultured in a 5% CO2, ambient O2, 37° C. humidified incubator for 7 days.
# (§3) Cytospin slide preparation, Wright-Geimsa and immunohistochemical staining of the cultured cells were conducted as described in Example 1 and 2 above. Mixed lymphocyte reactions (MLR's) were setup using T cells (responders) and dendritic cell enriched cultures (stimulators) from bulk PBMNC cultures, as described above in Example 1.
# (§4) Results: In the set of experiments using plastic adherent cells grown in polystyrene tissue culture plates, a Day 0 analysis of the cells was not performed. However, these cultures were analyzed for the presence of DC on days 4 and 7. Analysis perfomed were cell counts, viability via propidium iodide, morphology under Wright-Geimsa staining, and immunohistochemical staining using an anti-S100 antibody.
# Bulk PBMNC [2] = assay: S100+ cells in bulk PBMNC cultures with non-cytokine additives; details: day 7; average
# Protocol: Immunocytochemical staining: PBS (phosphate buffered saline) was made by dissolving 5 PBS tablets into 1000 ml millipore water. Cytospin slides were soaked in PBS. Endogenous peroxidase activity was blocked by treating slides with hydrogen peroxide/PBS (2 ml 30% H2O2+30 ml PBS) for 10 min. Slides were rinsed with PBS one time. Non-specific binding sites were blocked by incubating with normal serum matching source of secondary antibody (i.e. if secondary antibody is biotinylated goat-anti-mouse, used normal goat serum) at room temp. for 15 min. in a humidified environment. Excess serum was shaken from slides and placed 100 ul of primary antibody on slide, making sure cells are covered with liquid and incubated in humidified environment, room temp, for one hour. Negative control slides were incubated with normal serum for this hour. Slides were rinsed 3 times with PBS. Slides were incubated with biotinylated antibody reactive against the primary antibody (i.e. if primary antibody is mouse-anti-human, use a biotinylated goat-anti-mouse antibody) for 1 hour in humidity. Slides were rinsed 3 times with PBS. Slides were incubated with streptavidin-peroxidase, 2 drops/slide, for 30 min. in humidity. Slides were rinsed 3 times with PBS.
# as §1
# (§5) Culture of Bulk PBMNC: PBMNC cells were cultured in X-VIVO 15™ supplemented with 2 mM L- glutamine. Cultures were initiated at 5×^05 cells/ml in PL2417 gas-permeable containers (20 ml). GM-CSF and IL-4 were added to the cultures at final concentrations of 50 ng/ml and 1000 U/ml or non-cytokine additives such as Vitamin D3 at 2.5 uM, Vitamin E at 0.1%, Linoleic Acid at 5 ug/ml, or Ca++ Ionophore at 10 mM. Addition and subtraction of cells, media, and growth factors to and from PL2417 gas-permeable containers was accomplished by spiking a Sampling Site Coupler into the sample port of the container followed by use of syringes and needles. Cells were cultured in a 5% CO2, ambient O2, 37° C. humidified incubator for 7 days.
# as §3
# The S100 protein is a nerve cell protein that has been associated with dendritic cells. In Table 47, at day 7 of culture, the highest percent of S100+ cells was present in the GM-CSF/IL-4 culture (13%).
# Bulk PBMNC [3] = assay: Morphologically identified dendritic cells in bulk PBMNC cultures with non-cytokine additives
# Protocol: (§6) Cytofunnels were attached to microscope slides. 50,000 to 100,000 cells were removed from each culture and resuspended in approximately 100 to 200 ul of PBS-CMF. Slides were placed in the Cytospin® centrifuge and spun at 100 rpm for 4 min. Cytofunnels were removed from the slides and the slides were air dried for 1 minute. Ten drops of Wright-Geimsa stain were placed onto each slide and allowed to fix for 1 to 2 minutes. Ten drops of water were added to each slide and allowed to sit for 2 to 4 minutes. The slides were rinsed and air dried.
# (§7) Reading of Cytospin Slides: Slides were read under phase contrast microscopy, 40× and 60× oil magnification. One hundred cells were identified and characterized morphologically as either dendritic cells or non-dendritic cells (lymphocytes and monocyte, or CD34+-derived cells in those cases). Digital images were taken using a color monitor and color video printer.
# as §5, §3
# Bulk PBMNC [4] = assay: Flow cytometry phenotype of bulk PBMNC cultures with non-cytokine additives; details: Day 7
# Protocol: as §5
# Cultured cells were phenotyped as described in Example 1 above for the following markers: […]
# T cells = assay: Allogeneic MLR with bulk PBMNC cultures grown with non-cytokine additives
# Protocol: MLR's were setup using T cells as responders and dendritic cell enriched cultures as antigen presenters. Sheep red blood cells were prepared and used to erythrocyte rosette T cells from a MNC preparation as described in “Current Protocols in Immunology”, John Wiley & Sons Inc, 1995. Vol. 2, 7.2.1-7.2.4. Erythrocyte+(E+ ) T cells were resuspended to 1×10^6 cells/ml in RPMI 1640/10% FCS. Dendritic cells were resuspended to 1×10^6 cells/ml in RPMI 1640/10% FCS and mitomycin C was added at 25 ug/ml to inhibit proliferation. The tubes were incubated at 37° C. for 30 min. then washed 3 times with PBS-CMF/1% HA. […] […] The appropriate control wells were also prepared. Plates were incubated for 4 or 5 days at 37° C.
# Each well was pulsed with 1 uCi of ^3H-thymidine in RPMI 1640/10% FCS. Plates were incubated overnight at 37° C.
# Plates were harvested onto glass fiber filter strips using a cell harvester. Discs were placed into scintillation vials containing scintillation cocktail and samples were counted using a beta radiation counter.
# as §3
# The functional capacity of cultured cells to induce T cell proliferation was measured in an allogeneic MLR. […] At the greatest ratio of 1:100, the differences in capacity to induce T cell proliferation is marginal between the GM-CSF/IL-4 cultured cells and the non-cytofine additive cultured cells.
# adherent PBMNC [5] = assay: DC morphology (Wright-Geimsa) of plastic adherent cells cultured with non-cytokine additives
# Protocol: as §6, §7, §2, §3, §4
# adherent PBMNC [6] = assay: Cell counts and viability of plastic adherent cells cultured with non-cytokine additives in polystyrene plates; design: % VIABLE: concentration or dose not given beside the values; details: for % VIABLE: propidium iodide
# Protocol: Viability Determination: Prior to acquisition, 5 ul propidium iodide (PI) was added to each tube for use as a viability check. The cells were vortexed and acquired within 10 min of PI addition.
# as §2, §4
structure (smiles),measurement,setting,value
Cc1c(C)c2c(c(C)c1O)CCC(C)(CCCC(C)CCCC(C)CCCC(C)C)O2 (mixture of isomers) [Vitamin E],percentage of S100+ cells,adherent PBMNC [1]; day 4,19%
same,percent of S100+ cells,Bulk PBMNC [2],equivalent average percentages
same,average total number of morphologically identified DC projected in culture,Bulk PBMNC [3]; day 7,lowest total number
CNc1ccc2oc(CC3OC4(CCC3C)OC(C(C)C(=O)c3ccc[nH]3)C(C)CC4C)nc2c1C(=O)O (centres unmarked) [Ca ++ lono],Percent of Phenotype in Culture: CD1a-PE,Bulk PBMNC [4],0.04%
same,Percent of Phenotype in Culture: CD14-PE,Bulk PBMNC [4],0.26%
same,Percent of Phenotype in Culture: CD80-PE,Bulk PBMNC [4],2.21%
same,Percent of Phenotype in Culture: CD86-PE,Bulk PBMNC [4],2.32%
CNc1ccc2oc(CC3OC4(CCC3C)OC(C(C)C(=O)c3ccc[nH]3)C(C)CC4C)nc2c1C(=O)O (centres unmarked) [Ca++ Iono],% DC,Bulk PBMNC [3]; Day 7,7.00%
same,TOTAL # OF DC,"Bulk PBMNC [3]; Day 7, projected in culture",5.74E+05
same,Allogeneic MLR. Increase Over Background Proliferation,"T cells; Day 7, Cell Culture:T cell Ratio 1:1",4.8
same,Allogeneic MLR. Increase Over Background Proliferation,"T cells; Day 7, Cell Culture:T cell Ratio 1:10",1.8
same,Allogeneic MLR. Increase Over Background Proliferation,"T cells; Day 7, Cell Culture:T cell Ratio 1:100",0.9
"CNc1ccc2oc(C[C@H]3O[C@@]4(CC[C@H]3C)O[C@H]([C@H](C)C(=O)c3ccc[nH]3)[C@H](C)C[C@H]4C)nc2c1C(=O)O [Ca^++ Ionophore, A23187]",percentage of S100+ cells,adherent PBMNC [1]; day 4,17%
same,percentage of S100+ cells,adherent PBMNC [1]; day 7,next highest percentages
same,morphologically identified DC,"adherent PBMNC [5]; day 7, without GM-CSF added to additives",next highest percentages
same,percent of S100+ cells,Bulk PBMNC [2],equivalent average percentages
same,fold fewer DC (average total number projected in culture) than GM-CSF/IL-4 cultures,Bulk PBMNC [3]; day 7,approximately 4 fold
CCCCC/C=C\C/C=C\CCCCCCCC(=O)O [Linoleic Add],Percent of Phenotype in Culture: CD1a-PE,Bulk PBMNC [4],0.08%
same,Percent of Phenotype in Culture: CD14-PE,Bulk PBMNC [4],0.46%
same,Percent of Phenotype in Culture: CD80-PE,Bulk PBMNC [4],2.61%
same,Percent of Phenotype in Culture: CD86-PE,Bulk PBMNC [4],2.72%
C=C1CC[C@H](O)C/C1=C/C=C1\CCC[C@]2(C)[C@@H]([C@H](C)CCCC(C)C)CC[C@@H]12 [Vitamin D3],percentages of S100+ cells,"adherent PBMNC [1]; day 7, additive added to GM-CSF 50 ng/ml",greatest percentages of S100+ cells
same,percent of S100+ cells,Bulk PBMNC [2],lowest average percent
same,fold fewer DC (average total number projected in culture) than GM-CSF/IL-4 cultures,Bulk PBMNC [3]; day 7,approximately 4 fold
"CCCC(=O)Nc1ncnc2c1ncn2[C@@H]1O[C@@H]2COP(=O)(O)O[C@H]2[C@H]1OC(=O)CCC [dibutyryl cAMP, Dibutyryl cAMP]",TOTAL CELLS,"adherent PBMNC [6]; Day 4, with GM-CSF present",1.74E + 05
same,% VIABLE,"adherent PBMNC [6]; Day 4, with GM-CSF present",85.86%
same,TOTAL CELLS,"adherent PBMNC [6]; Day 4, without GM-CSF",2.18E + 05
same,% VIABLE,"adherent PBMNC [6]; Day 4, without GM-CSF",71.00%
same,TOTAL CELLS,"adherent PBMNC [6]; Day 7, with GM-CSF present",1.37E + 05
same,% VIABLE,"adherent PBMNC [6]; Day 7, with GM-CSF present",61.25%
same,TOTAL CELLS,"adherent PBMNC [6]; Day 7, without GM-CSF",2.59E + 05
same,% VIABLE,"adherent PBMNC [6]; Day 7, without GM-CSF",58.87%
same,% S100+,"adherent PBMNC [1]; Day 4, with GM-CSF present",17.00%
same,% S100+,"adherent PBMNC [1]; Day 4, without GM-CSF",6.00%
same,% S100+,"adherent PBMNC [1]; Day 7, with GM-CSF present",14.00%
same,% S100+,"adherent PBMNC [1]; Day 7, without GM-CSF",8.00%
same,% DC,"adherent PBMNC [5]; Day 4, with GM-CSF present",2.50%
same,% DC,"adherent PBMNC [5]; Day 4, without GM-CSF",0.00%
same,% DC,"adherent PBMNC [5]; Day 7, with GM-CSF present",2.50%
same,% DC,"adherent PBMNC [5]; Day 7, without GM-CSF",0.00%
"Cn1c(=O)c2[nH]cnc2n(C)c1=O [theophylline, Theophylline]",TOTAL CELLS,"adherent PBMNC [6]; Day 4, with GM-CSF present",1.34E + 05
same,% VIABLE,"adherent PBMNC [6]; Day 4, with GM-CSF present",88.75%
same,TOTAL CELLS,"adherent PBMNC [6]; Day 4, without GM-CSF",2.12E + 05
same,% VIABLE,"adherent PBMNC [6]; Day 4, without GM-CSF",75.27%
same,TOTAL CELLS,"adherent PBMNC [6]; Day 7, with GM-CSF present",9.65E + 05
same,% VIABLE,"adherent PBMNC [6]; Day 7, with GM-CSF present",59.55%
same,TOTAL CELLS,"adherent PBMNC [6]; Day 7, without GM-CSF",1.81E + 05
same,% VIABLE,"adherent PBMNC [6]; Day 7, without GM-CSF",56.49%
same,% S100+,"adherent PBMNC [1]; Day 4, with GM-CSF present",8.50%
same,% S100+,"adherent PBMNC [1]; Day 4, without GM-CSF",6.00%
same,% S100+,"adherent PBMNC [1]; Day 7, with GM-CSF present",11.00%
same,% S100+,"adherent PBMNC [1]; Day 7, without GM-CSF",7.50%
same,% DC,"adherent PBMNC [5]; Day 4, with GM-CSF present",6.50%
same,% DC,"adherent PBMNC [5]; Day 4, without GM-CSF",0.50%
same,% DC,"adherent PBMNC [5]; Day 7, with GM-CSF present",3.50%
same,% DC,"adherent PBMNC [5]; Day 7, without GM-CSF",0.00%
